Values joined by “and” are separate entries in the source; they are usually repeats but may differ in a detail not shown here. Equal entries are not always repeated. Toxic doses and inconclusive results are not listed. Peptide text beside a SMILES is read from it. * marks the point of attachment. Cbz = O=C(OCc1ccccc1)*; Bn = c1ccc(C*)cc1
Test system: P388 leukemia ip, CD2F1 mice, survival T/C
Experiment: NCI In Vivo Anticancer Drug Screen. Data for tumor model P388 Leukemia (intraperitoneal) in CD2F1 (CDF1) mice
Settings: endpoint: median survival time, higher = longer survival
Outline: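 Mice carrying the transplanted tumor received test compound or vehicle. Survival was recorded in each group, and the value is the treated-group measurement divided by that of the vehicle-treated control group.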

[1] = dose: 50.0 mg/kg/injection, schedule: Q01DX005 (ip), vehicle: saline with Tween-80
[2] = dose: 100.0 mg/kg/injection, schedule: Q01DX005 (ip), vehicle: saline with Tween-80
[3] = dose: 200.0 mg/kg/injection, schedule: Q01DX005 (ip), vehicle: saline with Tween-80
[4] = dose: 50.0 mg/kg/injection, schedule: Q01DX009 (ip), vehicle: saline with Tween-80
[5] = dose: 100.0 mg/kg/injection, schedule: Q01DX009 (ip), vehicle: saline with Tween-80
[6] = dose: 200.0 mg/kg/injection, schedule: Q01DX009 (ip), vehicle: saline with Tween-80
[7] = dose: 50.0 mg/kg/injection, schedule: Q01DX005 (ip), vehicle: Klucel (hydroxypropylcellulose) (HPC)
[8] = dose: 100.0 mg/kg/injection, schedule: Q01DX005 (ip), vehicle: Klucel (hydroxypropylcellulose) (HPC)
[9] = dose: 200.0 mg/kg/injection, schedule: Q01DX005 (ip), vehicle: Klucel (hydroxypropylcellulose) (HPC)
[10] = dose: 60.0 mg/kg/injection, schedule: Q01DX005 (ip), vehicle: Klucel (hydroxypropylcellulose) (HPC)
[11] = dose: 120.0 mg/kg/injection, schedule: Q01DX005 (ip), vehicle: Klucel (hydroxypropylcellulose) (HPC)

With `COC1C(Cl)CC(/C(=C\C2CCCCC2)C(=O)O)CC1Cl` (stereo not given) the T/C [1] was 100 % of control, the T/C [2] was 103 % of control and the T/C [3] was 101 % of control.
`CC1CCC2C(OC(=O)C23CO3)C2(C)C(=O)C=CC12` (stereo not given) was tested, and the T/C (dose: 2.5 mg/kg/injection, schedule: Q01DX009 (ip), vehicle: saline + alcohol) was 86 % of control, the T/C (dose: 5.0 mg/kg/injection, schedule: Q01DX009 (ip), vehicle: saline + alcohol) was 100 % of control and the T/C (dose: 10.0 mg/kg/injection, schedule: Q01DX009 (ip), vehicle: saline + alcohol) was 101 % of control. For the same compound, the T/C (dose: 20.0 mg/kg/injection, schedule: Q01DX009 (ip), vehicle: saline + alcohol) was 99 % of control.
In the case of `CC12CCC(O)C=C1CCC1C2CCC2(C)C(C3=CC(=O)OC3)CCC12O` (stereo not given), the T/C (dose: 3.1 micrograms/kg/injection, schedule: Q01DX009 (ip), vehicle: saline with Tween-80) is reported as 101 % of control, the T/C (dose: 6.2 micrograms/kg/injection, schedule: Q01DX009 (ip), vehicle: saline with Tween-80) is reported as 100 % of control and the T/C (dose: 12.5 micrograms/kg/injection, schedule: Q01DX009 (ip), vehicle: saline with Tween-80) is reported as 96 % of control. For the same compound, the T/C (dose: 25.0 micrograms/kg/injection, schedule: Q01DX009 (ip), vehicle: saline with Tween-80) was 102 % of control.
`O/N=C1/CCCCC/C1=N/O` was tested, and the T/C [4] was 98 % of control, the T/C [5] was 100 % of control and the T/C [6] was 100 % of control. The T/C (dose: 400.0 mg/kg/injection, schedule: Q01DX009 (ip), vehicle: saline with Tween-80) was 107 % of control.
For `O=[N+]([O-])c1ccc(Sc2cccc[n+]2[O-])c2nonc12`, the T/C (dose: 1.87 mg/kg/injection, schedule: Q01DX009 (ip), vehicle: Klucel (hydroxypropylcellulose) (HPC)) was 107 % of control, the T/C (dose: 3.75 mg/kg/injection, schedule: Q01DX009 (ip), vehicle: Klucel (hydroxypropylcellulose) (HPC)) was 99 % of control and the T/C (dose: 7.5 mg/kg/injection, schedule: Q01DX009 (ip), vehicle: Klucel (hydroxypropylcellulose) (HPC)) was 101 % of control.
For `Cc1ccc(N=C(N=C(NC(=O)c2ccccc2)c2ccccc2)c2ccccc2)cc1`, the T/C (dose: 12.5 mg/kg/injection, schedule: Q01DX009 (ip), vehicle: saline with Tween-80) was 99 % of control, the T/C (dose: 25.0 mg/kg/injection, schedule: Q01DX009 (ip), vehicle: saline with Tween-80) was 97 % of control and the T/C [4] was 89 % of control and 93 % of control (2×). For the same compound, the T/C [6] was 95 % of control.
`CC(C)(C)c1cccc(C2(C)C(=O)c3ccccc3C2=O)c1` was tested, and the T/C (dose: 100.0 mg/kg/injection, schedule: Q04DX002 (ip), vehicle: saline) was 102 % of control, the T/C (dose: 200.0 mg/kg/injection, schedule: Q04DX002 (ip), vehicle: saline) was 101 % of control and the T/C (dose: 400.0 mg/kg/injection, schedule: Q04DX002 (ip), vehicle: saline) was 100 % of control.
In the case of `N=C(N)c1ccc(N=Nc2cc(N=Nc3ccc(C(=N)N)cc3)c(O)cc2O)cc1`, the T/C [7] is reported as 92 % of control, the T/C [8] is reported as 92 % of control and the T/C [9] is reported as 100 % of control.
With `CN(C(=S=O)c1ccc([N+](=O)[O-])cc1)c1ccccc1` the T/C (dose: 50.0 mg/kg/injection, schedule: Q01DX009 (ip), vehicle: saline) was 100 % of control, the T/C (dose: 100.0 mg/kg/injection, schedule: Q01DX009 (ip), vehicle: saline) was 97 % of control and the T/C (dose: 200.0 mg/kg/injection, schedule: Q01DX009 (ip), vehicle: saline) was 104 % of control.
For `CN1C2=C(C#N)C(=C(C#N)C#N)NC2C(C)(C)c2ccccc21` (stereo not given), the T/C [4] was 96 % of control, the T/C [5] was 88 % of control and the T/C [6] was 92 % of control.
With `CCN(CC)CCSCCCN=c1c2ccc(Cl)cc2n(O)c2ccc(OC)nc12` the T/C (dose: 50.0 mg/kg/injection, schedule: Q01DX009 (ip), vehicle: saline + alcohol) was 115 % of control and the T/C (dose: 100.0 mg/kg/injection, schedule: Q01DX009 (ip), vehicle: saline + alcohol) was 112 % of control.
For `Cc1ccc(/C=C(\NC(=O)c2ccc(C)cc2)C(=O)O)cc1`, the T/C [7] was 114 % of control, the T/C [8] was 114 % of control and the T/C [9] was 107 % of control.
For `Cc1cc2c(=O)c3ccccc3oc2c(C#N)c1C`, the T/C (dose: 60.0 mg/kg/injection, schedule: Q01DX005 (ip), vehicle: saline) was 97 % of control, the T/C (dose: 120.0 mg/kg/injection, schedule: Q01DX005 (ip), vehicle: saline) was 91 % of control and the T/C (dose: 240.0 mg/kg/injection, schedule: Q01DX005 (ip), vehicle: saline) was 89 % of control.
`CC(=O)C(CCCn1c(=O)c2c(ncn2C)n(C)c1=O)C(C)=O` was tested, and the T/C (dose: 25.0 mg/kg/injection, schedule: Q01DX005 (ip), vehicle: Klucel (hydroxypropylcellulose) (HPC)) was 102 % of control, the T/C [7] was 105 % of control and the T/C [8] was 98 % of control.
`CCc1ncc(C(C)(O)c2ccccc2)n1Cc1ccccc1` (stereo not given) was tested, and the T/C [10] was 100 % of control, the T/C [11] was 102 % of control and the T/C (dose: 240.0 mg/kg/injection, schedule: Q01DX005 (ip), vehicle: Klucel (hydroxypropylcellulose) (HPC)) was 99 % of control.
For `CC(=O)OCN(C)N=Nc1ccc(C#N)cc1`, the T/C [10] was 104 % of control and the T/C [11] was 108 % of control.
In the case of `COC(=O)C(CSCc1ccccc1)NC(=O)C(CC(N)=O)NC(=O)OCc1ccccc1` (stereo not drawn) (Cbz-Asn-Cys(Bn)-OMe; configuration not given here), the T/C (dose: 12.5 mg/kg/injection, schedule: Q01DX009 (ip), vehicle: distilled water + Tween-80) is reported as 88 % of control, the T/C (dose: 25.0 mg/kg/injection, schedule: Q01DX009 (ip), vehicle: distilled water + Tween-80) is reported as 88 % of control and the T/C (dose: 50.0 mg/kg/injection, schedule: Q01DX009 (ip), vehicle: distilled water + Tween-80) is reported as 91 % of control. The T/C (dose: 100.0 mg/kg/injection, schedule: Q01DX009 (ip), vehicle: distilled water + Tween-80) was 92 % of control and the T/C (dose: 200.0 mg/kg/injection, schedule: Q01DX009 (ip), vehicle: distilled water + Tween-80) was 103 % of control.
With `COC(=O)C(=O)c1c(C(=O)OC)nc2nnc(N)n2c1C1CC1` the T/C (dose: 60.0 mg/kg/injection, schedule: Q01DX005 (ip), vehicle: saline with Tween-80) was 100 % of control, the T/C (dose: 120.0 mg/kg/injection, schedule: Q01DX005 (ip), vehicle: saline with Tween-80) was 107 % of control and the T/C (dose: 240.0 mg/kg/injection, schedule: Q01DX005 (ip), vehicle: saline with Tween-80) was 105 % of control.
`CC(=O)NC1=C(O)C2C(c3ccc(Cl)cc3)C(C#N)C(=O)N2C1=O` (stereo not given) was tested, and the T/C (dose: 100.0 mg/kg/injection, schedule: Q01DX001 (ip), vehicle: saline) was 100 % of control, the T/C (dose: 200.0 mg/kg/injection, schedule: Q01DX001 (ip), vehicle: saline) was 103 % of control and the T/C (dose: 400.0 mg/kg/injection, schedule: Q01DX001 (ip), vehicle: saline) was 98 % of control.
For `CS(=O)(=O)OCCN(CCOS(C)(=O)=O)c1ccc(N=Nc2ccccc2C(=O)O)cc1`, the T/C (dose: 0.78 mg/kg/injection, schedule: Q01DX009 (ip), vehicle: Klucel (hydroxypropylcellulose) (HPC)) was 168 % of control, the T/C (dose: 1.56 mg/kg/injection, schedule: Q01DX009 (ip), vehicle: Klucel (hydroxypropylcellulose) (HPC)) was 187 % of control and 206 % of control and the T/C (dose: 3.12 mg/kg/injection, schedule: Q01DX009 (ip), vehicle: Klucel (hydroxypropylcellulose) (HPC)) was 233 % of control. The T/C (dose: 3.13 mg/kg/injection, schedule: Q01DX009 (ip), vehicle: Klucel (hydroxypropylcellulose) (HPC)) was 242 % of control and the T/C (dose: 6.25 mg/kg/injection, schedule: Q01DX009 (ip), vehicle: Klucel (hydroxypropylcellulose) (HPC)) was 107 % of control and 213 % of control.
With `CCC(c1ccccc1)c1cc(C(C)(C)C)cc(C(C)(C)C)c1O` (stereo not given) the T/C (dose: 50.0 mg/kg/injection, schedule: Q01DX005 (ip), vehicle: distilled water + alcohol) was 100 % of control, the T/C (dose: 100.0 mg/kg/injection, schedule: Q01DX005 (ip), vehicle: distilled water + alcohol) was 107 % of control and the T/C (dose: 200.0 mg/kg/injection, schedule: Q01DX005 (ip), vehicle: distilled water + alcohol) was 100 % of control.
For `NC(=O)c1cc(Cl)nc2nc(Cl)nc(N)c12`, the T/C [1] was 105 % of control, the T/C (dose: 50.0 mg/kg/injection, schedule: Q04DX003 (ip), vehicle: saline with Tween-80) was 101 % of control and the T/C [2] was 105 % of control. For the same compound, the T/C (dose: 100.0 mg/kg/injection, schedule: Q04DX003 (ip), vehicle: saline with Tween-80) was 100 % of control and 114 % of control, the T/C [3] was 108 % of control and the T/C (dose: 200.0 mg/kg/injection, schedule: Q04DX003 (ip), vehicle: saline with Tween-80) was 106 % of control. The T/C (dose: 400.0 mg/kg/injection, schedule: Q01DX005 (ip), vehicle: saline with Tween-80) was 112 % of control and the T/C (dose: 400.0 mg/kg/injection, schedule: Q04DX003 (ip), vehicle: saline with Tween-80) was 110 % of control and 111 % of control.
With `N#CC(=Nc1ccc(F)cc1F)C1=C(O)c2ccccc2C1=O` the T/C (dose: 12.5 mg/kg/injection, schedule: Q01DX005 (ip), vehicle: saline with Tween-80) was 97 % of control, the T/C (dose: 25.0 mg/kg/injection, schedule: Q01DX005 (ip), vehicle: saline with Tween-80) was 105 % of control and the T/C [1] was 100 % of control.

Reference: PubChem BioAssay AID330 (DTP/NCI, 2004)
